Tests used:
[1] = Liver microsomes metabolic stability, rat; format: in vitro ADME; conditions: 1 μM compound, 0.5 mg/mL microsomal protein
Experimental: (§1) Metabolic stability of test compounds was evaluated in pooled rat, mouse, dog, and cynomolgus monkey liver microsomes (BD Biosciences, San Jose, CA). The incubation conditions were as follows: 1 μM of the tested compound, 1 mM NADPH, 0.5 mg/mL microsomal protein in 0.1 M potassium phosphate buffer (pH 7.4). Following a 5-minute pre-incubation period, the enzymatic reactions were initiated by the addition of NADPH and test compound to the microsomes diluted in phosphate buffered saline. The mixtures were incubated at 37° C. for 0, 20, 40, and 60 min.
(§2) Compound concentrations were assessed by LC-MS/MS. Intrinsic clearance based upon microsomal stability data was determined using a substrate depletion method and scaled to hepatic clearance using the well-stirred model (Obach, R. S.; Baxter, J. G.; Liston, T. E.; Silber, B. M.; Jones, B. C.; Macintyre, F.; Rance, D. J.; Wastall, P., “The Prediction of Human Pharmacokinetic Parameters from Preclinical and in vitro Metabolism Data”, J. Pharmacol. Exp. Ther., (1997), 283 (1), 46-58).

[2] = Liver microsomes metabolic stability, dog; format: in vitro ADME; conditions: 1 μM compound, 0.5 mg/mL microsomal protein
Experimental: as §1, §2

Cbl-b = Cbl-b (Homo sapiens (Human), UniProt Q13191); test: Cbl-b LCK Ub TR-FRET assay (Cbl-b Lck HTRF); format: biochemical
Chain of Cbl-b (Q13191 40-426): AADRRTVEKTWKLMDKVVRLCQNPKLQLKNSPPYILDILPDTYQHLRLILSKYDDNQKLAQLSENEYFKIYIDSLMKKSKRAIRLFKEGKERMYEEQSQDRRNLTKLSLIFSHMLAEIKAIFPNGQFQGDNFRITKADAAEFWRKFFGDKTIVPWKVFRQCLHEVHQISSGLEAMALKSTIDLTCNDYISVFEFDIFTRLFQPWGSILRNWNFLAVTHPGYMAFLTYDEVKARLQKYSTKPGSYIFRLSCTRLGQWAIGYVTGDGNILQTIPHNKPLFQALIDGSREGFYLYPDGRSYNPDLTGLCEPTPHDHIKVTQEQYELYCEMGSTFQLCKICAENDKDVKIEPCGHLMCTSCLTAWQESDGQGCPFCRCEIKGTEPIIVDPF
Method in brief: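 TR-FRET (340 nm excitation, 615/665 nm emission) read after adding HA-ubiquitin–UBE2D2 thioester, anti-HA-D2 and streptavidin-Eu. Beforehand, compounds incubated 60 min with biotinylated Cbl-b, then 90 min with His-LCK and ATP (1 mM in 2× mix); IC50 from 10 concentrations, DMSO high and no-LCK low controls.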

mouse hepatocytes = test: Hepatocyte metabolic stability, mouse; format: in vitro ADME; conditions: 1.0 μM compound, 0.5 million cells/mL
Experimental: (§3) Metabolic stability assays of test compounds were evaluated in cryopreserved pooled rat, mouse, dog, and cynomolgus monkey hepatocytes (CellzDirect; Durham, NC, USA). Membrane integrity of the cells was assessed by trypan blue exclusion. Test compounds (1.0 μM with 0.1% dimethylsulfoxide) were incubated with cells (0.5 million cells/mL) at 37° C. in a 95% air/5% CO2 atmosphere for 0, 20, 40, or 60 minutes. Concentrations of test compounds in hepatocyte incubations were determined by LC/MS/MS. Intrinsic clearance was determined using a substrate depletion method and scaled to hepatic clearance using the well-stirred model as described above for the liver microsomes metabolic stability assays.

rat hepatocytes = test: Hepatocyte metabolic stability, rat; format: in vitro ADME; conditions: 1.0 μM compound, 0.5 million cells/mL
Experimental: as §3

[3] = Liver microsomes metabolic stability, mouse; format: in vitro ADME; conditions: 1 μM compound, 0.5 mg/mL microsomal protein
Experimental: as §1, §2

c-Cbl = c-Cbl (Homo sapiens (Human), UniProt P22681); test: C-Cbl LCK Ub TR-FRET assay (c-cbl Lck HTRF); format: biochemical; conditions: for (fold-selectivity): C-cbl Lck HTRF IC50 relative to Cbl-b Lck HTRF IC50
Chain of c-Cbl (P22681 47-435): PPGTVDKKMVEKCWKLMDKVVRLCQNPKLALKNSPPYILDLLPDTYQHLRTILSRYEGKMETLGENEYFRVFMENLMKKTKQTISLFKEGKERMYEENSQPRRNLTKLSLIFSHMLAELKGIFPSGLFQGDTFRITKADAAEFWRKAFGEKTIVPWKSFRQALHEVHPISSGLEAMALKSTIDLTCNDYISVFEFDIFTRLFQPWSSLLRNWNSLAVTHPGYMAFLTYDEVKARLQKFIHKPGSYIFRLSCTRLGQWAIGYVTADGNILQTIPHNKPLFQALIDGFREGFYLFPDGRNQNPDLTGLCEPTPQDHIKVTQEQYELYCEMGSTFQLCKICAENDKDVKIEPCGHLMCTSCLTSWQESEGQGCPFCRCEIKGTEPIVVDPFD
Method in brief: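 After the ubiquitination reaction, detection mixture was added and plates incubated 20 min at room temperature before reading. IC50 values were calculated with wells lacking LCK as the low control and DMSO as the high control.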

[4] = In vivo pharmacokinetics, mouse; parameters: species or system CD-1 mice; conditions: male, CD-1, plasma
Experimental: The pharmacokinetics of test compounds were evaluated following a single intravenous bolus (IV) of solution at a dose of 0.2-1 mg/kg and oral administration (PO) of solution/suspension at doses of 1-5 mg/kg in male cynomolgus monkey, beagle dogs, Sprague Dawley rats, or CD-1 mice using a parallel study design. Blood samples for the IV dose group were collected prior to administration (predose) and at 0.033, 0.083, 0.25, 0.5, 1, 3, 6, 9 and 24 hours post dose. Blood samples for PO dose groups were collected prior to administration (predose) and at 0.083, 0.25, 0.5, 1, 3, 6, 9 and 24 hours post dose. For the IV group, urine was collected from each animal at predose and from 0-6 and 6-24 hours post dose. The vehicle used for IV dose groups was a combination of PEG400 with citrate buffer (pH 5.0) or PEG400/Cremphor with DMSO/H2O, and for PO groups was MCT.
Plasma and urine concentrations were quantitated at Genentech Inc. using a non-validated LC/MS/MS method. The lower limit of quantitation (LLOQ) of the plasma and urine assays was 0.005 μM. PK parameters were determined by non-compartmental methods using WinNonlin (version 5.2, Pharsight Corporation, Mountain View, CA).

Structure (SMILES)	Liver microsomes Pred. CLhep (mL/min/kg) Rat/Mouse/Dog [1] [mL/min/kg]	Liver microsomes Pred. CLhep (mL/min/kg) Rat/Mouse/Dog [2] [mL/min/kg]	IC50 (Cbl-b) [nM]	Hepatocyte Pred. CLhep (mL/min/kg) Rat/Mouse/Dog (mouse hepatocytes) [mL/min/kg]	Hepatocyte Pred. CLhep (mL/min/kg) Rat/Mouse/Dog (rat hepatocytes) [mL/min/kg]	Liver microsomes Pred. CLhep (mL/min/kg) Rat/Mouse/Dog [3] [mL/min/kg]	IC50 (c-Cbl) [nM]	(fold-selectivity) (c-Cbl) [x]	bioavailability ([4]; PO 1-5 mg/kg, read-out: Oral Bioavailability (F %)) [%]	clearance ([4]; single intravenous bolus 0.2-1 mg/kg, read-out: Mouse CL) [mL/min/kg]
Cn1cnnc1[C@H](F)C1(c2cccc(N3Cc4c(cc(CN5CC(C)(CO)C5)cc4C(F)(F)F)C3=O)c2)COC1 [Compound 74, (R)-2-(3-(3-(fluoro(4-methyl-4H-1,2,4-triazol-3-yl)methyl)oxetan-3-yl)phenyl)-6((3-(hydroxymethyl)-3-methylazetidin-1-yl)methyl)-4-(trifluoromethyl)isoindolin-1-one]	15	19	57	35	11	37	120	2.2	–	–
Cn1cnnc1[C@H](F)C1(c2cccc(N3Cc4c(cc(CN)cc4C(F)(F)F)C3=O)c2)COC1 [Compound 68, (R)-6-(aminomethyl)-2-(3-(3-(fluoro(4-methyl-4H-1,2,4-triazol-3-yl)methyl)oxetan-3-yl)phenyl)-4-(trifluoromethyl)isoindolin-1-one]	6	12	79	37	19	14	110	1.3	–	–
Cn1cnnc1[C@H](F)C1(c2cccc(N3Cc4c(cc(CN5CC6CC5C6)cc4C(F)(F)F)C3=O)c2)COC1 [Compound 86, (R)-6-((2-azabicyclo[2.1.1]hexan-2-yl)methyl)-2-(3-(3-(fluoro(4-methyl-4H-1,2,4-triazol-3-yl)methyl)oxetan-3-yl)phenyl)-4-(trifluoromethyl)isoindolin-1-one]	7	14	130	36	12	27	270	2.1	2	40

From patent US20250230147A1, “LACTAMS AS CBL-B INHIBITORS” (Genentech, Inc., priority 2021, published 2025)
